The values that follow come from PubChem BioAssay (NCI).

What all share (assay): inhibition of tumour cell growth, NCI panel, 48 h
Assay [1] deals with 786-0 renal.
Assay [2] relates to RXF 393 renal.
The subject of assay [3] is MDA-MB-435.
Assay [4] relates to M14 melanoma.
For assay [5], the system named is UACC-257 melanoma.
Assay [6] concerns MDA-N.
Assay [7] concerns MALME-3M melanoma.
Assay [8] has as its system HCC-2998 colon.
The test system of assay [9] is NCI-H226 lung.
The test system of assay [10] is SN12C renal.
The test system of assay [11] is SK-MEL-2 melanoma.

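A five-concentration, 48-hour dose response in 96-well plates underlies each endpoint, interpolated linearly between surrounding concentrations. GI50 is the concentration that inhibits growth by half. TGI marks complete inhibition of growth.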 Bounds are passed on as bounds.

Take `NCCNCCNc1ccc(NCCNCCN)c2c1C(=O)c1c(O)ccc(O)c1C2=O`: the TGI in [1], in assay [2], in assay [3], in [4], in [5] and in assay [6] was > 100 µM throughout. Moreover, the TGI in assay [7], in assay [8], in [9] and in [10] was > 100 µM in each case.
On to `COC(=O)/C=C1\CCCN1CCc1cc2c(cc1CC#N)OCO2`, for which the TGI in [1] is > 100 µM; in assay [2], > 100 µM; in assay [11] it was > 100 µM; in assay [3] it was 45.1 µM; in assay [4] it was > 100 µM; in assay [5], > 100 µM. The TGI in assay [6] was 45.6 µM; in [7] it was > 100 µM; in assay [8] it was 93.7 µM; in assay [9], > 100 µM; in [10] it was > 100 µM.
Turning to `COC(=O)c1ccccc1C1=C([N+](=O)[O-])C(c2cccc(Br)c2)C(C#N)=C(N)O1` (centres undefined), the TGI in [1] is 63.2 µM; in assay [2], 41.9 µM; in [11], > 100 µM; in assay [3], 57.4 µM; in [4], 77.5 µM; in [5], > 100 µM. Further, the TGI in assay [6], in assay [8], in assay [9] and in assay [10] was > 100 µM in each case.
Turning to `Nc1nc(OCC2CCCCC2)c2[nH]cnc2n1`, the TGI was > 88.1 µM in assay [1]; 57.1 µM in assay [2]; 22.1 µM in assay [11]; 60.7 µM in assay [3]; 57.8 µM in [4]; 61.8 µM in assay [5]. The TGI in assay [6] was 58.3 µM; in [7], > 50.4 µM; in [8], > 67.8 µM; in assay [9], 73.7 µM; in assay [10] it was 56.3 µM.
For the compound `O=C(CSc1nc2ccc(I)cc2c(=O)n1Cc1ccccc1)NN1C(=O)c2ccccc2C1=O`, the TGI is > 100 µM in assay [1]; 25.5 µM in assay [2]; 28.4 µM in assay [11]; > 100 µM in assay [3]; > 100 µM in [4]; 51.4 µM in [5]. Also, the TGI in [6] is > 100 µM; in [7] it was 62.8 µM; in assay [8], > 100 µM; in assay [9], 23.5 µM; in [10], 57.3 µM.
In the case of `CCSc1nc(-c2cccs2)nc2ccc(I)cc12`, the TGI in [1], in assay [2], in assay [11], in assay [3], in assay [4] and in assay [5] was > 100 µM in each case. The TGI in assay [6], in [8], in [9] and in assay [10] was > 100 µM throughout.
`CC(=O)OCC1OC(Oc2cc(C)c(O)cc2C/C=C(\C)CC/C=C(\C)C[C@@H](C=C(C)C)OC(C)=O)C(O)C(OC(C)=O)C1OC(C)=O` (some centres undefined): the TGI in assay [1] was > 50 µM; in assay [2] it was 34.4 µM; in [11], > 50 µM; in assay [3], > 50 µM; in assay [4] it was > 50 µM; in [5], 39.8 µM. For the same compound, the TGI in assay [6] was > 50 µM; in assay [7], > 50 µM; in assay [8], 41.2 µM; in assay [10] it was > 50 µM.
Consider `COC(=O)NC1C(C)OC(OC2C/C=C(/C)C3C=CC4C(OC5CC(OC6CC(OC7CC(O)C(O)C(C)O7)C(OC7CC(O)C(OC)C(C)O7)C(C)O6)C(O)C(C)O5)C(C)CC(C)C4C3(C)/C(O)=C3\C(=O)OC4(CC(C)C(CO)=CC4/C=C\2C)C3=O)CC1(C)[N+](=O)[O-]` (centres undefined), for which the TGI in assay [1] was 7.08 µM; in assay [11], 87.2 µM; in [3] it was > 100 µM; in assay [4], 77 µM; in assay [5] it was 57.8 µM; in assay [6], > 100 µM. For the same compound, the TGI in assay [8] is 18.9 µM; in [10], > 100 µM.
Turning to `C[n+]1c2ccccc2c(CNC(CS)C(=O)O)c2ccccc21` (centres undefined), the TGI was > 100 µM in assay [1]; 59.8 µM in assay [2]; 76.8 µM in assay [11]; > 100 µM in assay [4]; > 100 µM in [5]; 92.1 µM in [7]. Besides, the figures for the TGI in assay [8], in [9] and in assay [10] were > 100 µM, 82.1 µM and > 100 µM, respectively.
In the case of `O=c1c2cc(S(=O)(=O)O)ccc2nc(COc2ccc(Oc3ccc(Cl)cc3Cl)cc2)n1C(=S)Nc1ccc(Cl)cc1`, the TGI in assay [1] was 40.4 µM; in assay [2], 31 µM; in assay [11], 37.4 µM; in [3] it was 39.3 µM; in assay [4], 40.9 µM; in assay [5], 60.5 µM. The TGI in assay [6] was found to be 51 µM; in assay [7] it was 49 µM; in assay [9], 42.4 µM; in assay [10], 34.7 µM.
For `CCCCCCCN(CCCCCCC)CC(O)c1cc2ccccc2c2cc(Br)ccc12` (centres undefined), the TGI in [1] was > 100 µM; in [11], 69.9 µM; in [3] it was > 100 µM; in assay [4] it was 76.7 µM; in [5], > 100 µM; in [6] it was > 100 µM. Further, the TGI in [7] amounted to 40.7 µM; in [8], 45.7 µM; in assay [10], 46.7 µM.
For `O=C(NC(Cc1ccc(I)cc1)C(=O)O)c1ccc(Cl)cc1` (centres undefined), the TGI in assay [11], in assay [5], in assay [7], in assay [8], in assay [9] and in assay [10] was > 100 µM throughout.
Take `N=C(N)SCc1cccc([N+](=O)[O-])c1`: the TGI in assay [2] is 61.4 µM; in assay [11], > 73.7 µM; in [5] it was > 75 µM; in assay [7], > 76.6 µM; in [8] it was > 100 µM; in [9], 67.2 µM. In addition, in assay [10], the TGI was > 96.1 µM.
Turning to `CC1(O)COCCCCOc2c(CN)cccc2NC(=O)c2nc(cnc2N)-c2ccc(cc2)S(=O)(=O)C(C)(C)C1` (centres undefined), the GI50 is 0.015 µM in assay [2]; 1.74 µM in assay [11]; 1.35 µM in assay [3]; 1.76 µM in assay [5]; 1.77 µM in assay [7]; 1.48 µM in [8]. The GI50 in assay [10] was 1.27 µM. For the same compound, the TGI is 1.87 µM in [2]; 3.36 µM in assay [11]; 2.72 µM in [3]; 3.35 µM in assay [5]; 3.43 µM in [7]; 2.87 µM in assay [8]. Also, in assay [10], the TGI amounted to 2.66 µM.
Turning to `Oc1ccc(-c2nc3cc(F)ccc3s2)cc1`, the TGI in assay [1] stood at 92.6 µM; in [2], 71.9 µM; in assay [11], 36.9 µM; in assay [3], 43.1 µM; in [4], 47.6 µM; in assay [5] it was 69.6 µM. Further, the TGI in assay [6] amounted to 79.4 µM; in [7], 43.3 µM; in assay [8], 28.3 µM; in assay [9], 39.7 µM; in assay [10], 53.3 µM.
Regarding `CO/N=C(\C)c1cccc(Nc2nc3ccccc3c3occc23)c1`, the TGI amounted to 26.7 µM in [1]; 27.2 µM in [2]; 25.4 µM in [3]; 30.7 µM in assay [4]; 3.69 µM in assay [5]; 28.5 µM in assay [6]. In addition, the TGI amounted to 29.7 µM in assay [7], 28.8 µM in assay [8], 7.38 µM in [9] and 26.9 µM in [10].
Take `CCc1ccc2c(c1)C(=O)c1c-2n(CCCN)c(=O)c2cc([N+](=O)[O-])ccc12`: the GI50 in [3] is 1.56 µM; in assay [4] it was 1.56 µM; in [5], 1.88 µM; in assay [7], 1.42 µM; in assay [8], 0.376 µM; in [10], 1.48 µM. Moreover, the TGI was determined as 3 µM in assay [3]; 3.08 µM in assay [4]; 3.42 µM in assay [5]; 2.8 µM in assay [7]; 1.12 µM in [8]; 2.95 µM in assay [10].
Regarding `COc1cc([N+](=O)[O-])ccc1N1C(=O)C2c3[nH]c4ccccc4c3C3CCC(C(C)(C)C)CC3C2C1=O` (centres undefined), the TGI in [11] is > 100 µM; in assay [3] it was > 100 µM; in [4], 40.5 µM; in [5], > 100 µM; in assay [6] it was > 100 µM; in assay [7], > 100 µM. For the same compound, the TGI in assay [8], in assay [9] and in [10] was > 100 µM in each case.
Take `Cc1ccc([N+](=O)[O-])cc1S(=O)(=O)Nc1ccc(C2=NOC(c3ccccc3O)C2)cc1` (centres undefined): the TGI in [1] is > 100 µM; in [2], 11.1 µM; in assay [11], > 100 µM; in assay [3], 3.22 µM; in assay [4] it was 6.85 µM; in assay [5], > 100 µM. Moreover, the TGI in assay [6] is 4.17 µM; in assay [7], > 100 µM; in assay [8], 24.8 µM; in assay [9] it was > 100 µM; in assay [10], > 100 µM.
For `COc1cc([N+](=O)[O-])ccc1NC(=O)c1cccc([N+](=O)[O-])c1O`, the TGI in assay [11] is 68 µM; in assay [4], > 100 µM; in assay [5], 63.7 µM; in assay [7], 63.5 µM; in assay [8], > 100 µM; in [9] it was > 100 µM. In assay [10], this compound had a TGI of 71.8 µM.
In the case of `CNC(C)Cc1ccccc1OC` (centres undefined), the TGI in assay [1], in [2], in assay [11], in assay [4], in assay [5] and in [7] was > 100 µM throughout. In addition, the TGI in [8], in assay [9] and in assay [10] was > 100 µM in each case.
As for `c1c2c(cc3c1OCO3)-c1cc3ccc4c(c3c[n+]1CC2)OCO4`, the TGI in assay [1] was > 10.1 µM; in assay [2] it was > 12.5 µM; in assay [11] it was > 12.5 µM; in assay [3], 0.865 µM; in assay [4], 5.9 µM; in assay [5], > 12.5 µM. Moreover, the TGI in assay [6] is 0.595 µM; in assay [7], 3.04 µM; in assay [8], > 12.5 µM; in assay [9], > 11.1 µM; in assay [10], > 12.5 µM.
For `CCO[C@]12CCC[C@H]1[C@@H]1C(=O)c3ccccc3C(=O)C1=C(C)O2`, the TGI in assay [1] is > 100 µM; in [2], 56.4 µM; in assay [11] it was > 100 µM; in assay [3], > 100 µM; in assay [4], > 100 µM; in [5] it was > 100 µM. Moreover, the TGI in [6] is 43 µM; in assay [7] it was > 100 µM; in assay [8], > 100 µM; in [10] it was > 100 µM.
As to `O=C1OC2(OC2c2ccc(Cl)cc2)c2ccccc21` (centres undefined), the TGI in [2], in assay [11], in assay [4], in assay [7], in assay [8] and in assay [9] was > 100 µM in each case. In [10], the TGI was > 100 µM.
For `CC1(C=O)CCC23COC4(CCC5C6(C)CCC(OC7OCC(OC8OC(CO)C(O)C(OC9OC(CO)C(O)C(O)C9O)C8OC8OCC(O)C(O)C8O)C(O)C7OC7OC(CO)C(O)C(O)C7O)C(C)(C)C6CCC5(C)C4(C)CC2O)C3C1` (centres undefined), the TGI in assay [1] came out at 2.43 µM; in [11], 2.98 µM; in [4], 2.85 µM; in assay [6] it was 1.81 µM; in [8], 2.17 µM; in assay [9], 3.47 µM.
`CCOP(=O)(OCC)C(Nc1cccc(F)c1)c1ccc(N(C)C)cc1` (centres undefined): the TGI in assay [2], in assay [11], in assay [3], in assay [4], in [5] and in [6] was > 100 µM throughout. Also, the TGI in [7], in [8], in assay [9] and in assay [10] was > 100 µM each time.
